Read-outs that look alike come from different tables or passages of the source. Marks after values point to notes of the source that are not given here.
Assays:
[1] = test system: BE2C neuroblastoma; parameters: method as in PMID 36296713, PMID 36142383; settings: cited from earlier work
[2] = test system: Du145 prostate; parameters: method as in PMID 36296713, PMID 36142383; settings: cited from earlier work
[3] = test system: U87 glioblastoma; parameters: method as in PMID 36296713, PMID 36142383; settings: cited from earlier work
[4] = test system: ADDP ovarian variant (cisplatin-resistant A2780 clone); parameters: method as in PMID 36296713, PMID 36142383; settings: cited from earlier work
[5] = test system: MCF10A / Du145; parameters: method as in PMID 36296713, PMID 36142383; settings: GI50 in MCF10A/GI50 in Du145, from data of previous studies; cited from earlier work
[6] = test system: SJG2 glioblastoma; parameters: method as in PMID 36296713, PMID 36142383; settings: cited from earlier work
[7] = test system: H460 lung; parameters: method as in PMID 36296713, PMID 36142383; settings: cited from earlier work
[8] = test system: HT29 colon cells; parameters: method as in PMID 36296713, PMID 36142383; settings: cited from earlier work
[9] = test system: A431 skin; parameters: method as in PMID 36296713, PMID 36142383; settings: cited from earlier work
[10] = test system: MCF7 breast; parameters: method as in PMID 36296713, PMID 36142383; settings: cited from earlier work
[11] = test system: multiple cell lines; parameters: method as in PMID 36296713, PMID 36142383; settings: mean over all cell lines tested; cited from earlier work
[12] = test system: MIA pancreas; parameters: method as in PMID 36296713, PMID 36142383; settings: cited from earlier work
[13] = test system: non-tumour derived MCF10A breast line; parameters: method as in PMID 36296713, PMID 36142383; settings: cited from earlier work
[14] = test system: HT29 colon; parameters: method as in PMID 36296713, PMID 36142383; settings: cited from earlier work
[15] = test system: HT29 colon cells; test: Mitochondrial membrane potential, TMRE-MtMP assay; assay type: cell-based, human; settings: treatment at GI50 concentration (FCCP positive control 20 μM)
From the text: To study the MtMP changes in treated cells, a TMRE-MtMP Assay Kit (Abcam, Cambridge, MA, USA) was used (see Supplementary Materials).
TMRE was used to stain HT29 colon cells, and treatment with the complexes and ligands was completed at each specific GI50 concentration. The MtMP changes detected are expressed as RFU. Additionally, lower RFU values correspond to a decline in mitochondrial activity. […]
dimethylthiazol-2-yl]-2,5-diphenyltetrazolium bromide) assay and absorbance was read at 540 nm. An eight-point dose response curve was produced from which the GI50 value was calculated, representing the drug concentration at which cell growth was inhibited by 50% based on the difference between the optical density values on day 0 and those at the end of drug exposure. […]
5. Mitochondrial Membrane Potential (MtMP)
In 96-well plates, 25,000 cells/mL of HT29 colon cells in DMEM were seeded. Cells were treated with a GI50 drug concentration for each complex. […]
washed with PBS and stained with 1 μM tetramethylrhodamine, ethyl ester (TMRE) and incubated for 30 min. TMRE was then removed, and cells were then re-washed with PBS (0.2% BSA), after which phenol red free media was added. The plates were directly scanned to measure fluorescence (expressed as RFU), using the Glo-Max®-Multimode […]
microplate reader (Promega Corporation, Alexandra, VIC, Australia) at an […]
For the positive control, 20 μM carbonyl cyanide 4-(trifluoromethoxy) phenylhydrazone (FCCP)) was added to the cells and incubated for 10 min. The cells were washed with PBS (0.2% BSA) and stained with TMRE (1 μM) for 30 min; this was removed and phenol red free media was added, and the final solution was scanned as mentioned above. […]

[16] = test system: A2780 ovarian; parameters: method as in PMID 36296713, PMID 36142383; settings: cited from earlier work
[17] = test system: HT29 colon cells; test: ROS production, DCFDA/H2DCFDA cellular ROS assay; assay type: cell-based, human; settings: treatment at GI50 concentration (TBHP positive control 20 μM)
Experimental: To determine the presence of ROS in treated cells, a DCFDA/H2DCFDA-cellular ROS Assay Kit (Abcam, Cambridge, MA, USA) was utilised, as previously reported. The ROS potential of platinum(II) precursors and platinum(IV) scaffolds, which were determined using the same method, were also presented in this study for comparison.
Additionally, the ROS potential of the platinum(II) precursors and platinum(IV) scaffolds was determined previously and was presented here to allow for comparison (Table 10 and Figure 13). […] Treatment with the complexes and ligands was completed at each specific GI50 concentration. […]
dimethylthiazol-2-yl]-2,5-diphenyltetrazolium bromide) assay and absorbance was read at 540 nm. An eight-point dose response curve was produced from which the GI50 value was calculated, representing the drug concentration at which cell growth was inhibited by 50% based on the difference between the optical density values on day 0 and those at the end of drug exposure.
4. Reactive Oxygen Species (ROS) Potential
A total of 25,000 cells/mL of HT29 cells in DMEM were seeded in 96-well plates. Cells were washed with 1X kit buffer, and then stained with 25 μM 2’,7’-dichlorofluorescein diacetate (DCFH-DA) and incubated for 45 min. DCFH-DA was then removed, and cells were then re-washed with 1X kit buffer, after which phenol red free media was added.
Cells were then treated with a GI50 drug concentration for each complex. The plates were directly scanned to measure fluorescence (relative fluorescence units (RFU)) at different time points using the Glo-Max®-Multimode microplate reader (Promega Corporation, Alexandra, VIC, Australia) at an excitation/emission of 485/535 nm. […]

[18] = parameters: method as in PMID 24951889; settings: water, from the literature; cited from earlier work

Row | SMILES | GI50 [1] | GI50 [2] | GI50 [3] | GI50 [4] | Selectivity Cytotoxicity Index (SCI) [5] | GI50 [6] | GI50 [7] | ROS Production ([8]; HT29, 24 h) | ROS Production ([8]; HT29, 48 h) | ROS Production ([8]; HT29, 72 h) | GI50 [9] | GI50 [10] | GI50 [11] | GI50 [12] | GI50 [13] | GI50 [14] | MtMP Changes ([15]; HT29, 24 h) | MtMP Changes ([15]; HT29, 48 h) | MtMP Changes ([15]; HT29, 72 h) | GI50 [16] | also measured
1 | Cc1cc2c3c4c1=CC=C[N]4[Pt+2]([OH])([OH])[N]3C=CC=2.N[C@H]1CCCC[C@@H]1N [5MESS(IV)(OH)2] | 1400 ± 300 nM | 41 ± 5 nM | 900 ± 58 nM | 130 ± 22 nM | 3.17 | 640 ± 70 nM | 60 ± 5 nM | 234 ± 1 RFU | 323 ± 9 RFU | 335 ± 2 RFU | 0.36 ± 0.058 µM | 1200 ± 390 nM | 443 ± 81 nM | 160 ± 29 nM | 130 ± 19 nM | 60 ± 6 nM | 301 ± 14 RFU | 214 ± 9 RFU | 198 ± 4 RFU | 240 ± 9 nM | –
2 | Cc1c(C)c2c3c4c1=CC=C[N]4[Pt+2]([OH])([OH])[N]3C=CC=2.N[C@H]1CCCC[C@@H]1N [56MESS(IV)(OH)2] | 240 ± 22 nM | 15 ± 2.6 nM | 190 ± 23 nM | 170 ± 120 nM | 4.07 | 210 ± 45 nM | 190 ± 150 nM | 259 ± 3 RFU | 356 ± 11 RFU | 438 ± 7 RFU | 0.12 ± 0.022 µM | 480 ± 140 nM | 151 ± 50 nM | 43 ± 2.5 nM | 61 ± 7 nM | 36 ± 7 nM | 245 ± 16 RFU | 177 ± 11 RFU | 125 ± 12 RFU | 59 ± 7 nM | –
3 | CC(C)(C)OO [TBHP, tert-butyl hydroperoxide] | – | – | – | – | – | – | – | – | – | – | – | – | – | – | – | – | – | – | – | – | ROS Production ([17]; HT29, 24 h): 658 ± 28 RFU; ROS Production ([17]; HT29, 48 h): 504 ± 15 RFU; ROS Production ([17]; HT29, 72 h): 497 ± 10 RFU
4 | O=C1[O][Pt]2([NH][C@@H]3CCCC[C@H]3[NH]2)[O]C1=O (relative stereo) [Oxaliplatin, trans-L-(1R,2R-diaminocyclohexane) oxalatoplatinum(II)] | 900 ± 200 nM | 2900 ± 400 nM | 1800 ± 200 nM | 800 ± 100 nM | – | 3000 ± 1200 nM | 1600 ± 100 nM | – | – | – | 4.1 ± 0.5 µM | 500 ± 100 nM | 1460 ± 320 nM | 900 ± 200 nM | – | 900 ± 200 nM | – | – | – | 160 ± 100 nM | –
5 | N#CC(C#N)=NNc1ccc(OC(F)(F)F)cc1 [FCCP, carbonyl cyanide 4-(trifluoromethoxy) phenylhydrazone] | – | – | – | – | – | – | – | – | – | – | – | – | – | – | – | – | 194 ± 10 RFU | 143 ± 5 RFU | 80 ± 5 RFU | – | –
6 | N.N.O=C([O-])C1(C(=O)[O-])CCC1.[Pt+2] [Carboplatin, cis-diammine(1,1-cyclobutanedicarboxylato) platinum(II)] | 19000 nM | 15000 nM | > 50000 nM | > 50000 nM | 3.33 | 5700 ± 200 nM | 14000 nM | – | – | – | 24 µM | > 50000 nM | 32200 nM | > 50000 nM | > 50000 nM | > 50000 nM | – | – | – | 9200 ± 2900 nM | Solubility [18]: 11.7 * mg/mL
7 | N[C@H]1CCCC[C@@H]1N.[OH][Pt+2]1([OH])[N]2C=CC=c3ccc4c(c32)[N]1C=CC=4 [PHENSS(IV)(OH)2] | 3000 ± 530 nM | 310 ± 92 nM | 4900 ± 610 nM | 1300 ± 350 nM | 5.48 | 1700 ± 350 nM | 1700 ± 200 nM | 144 ± 5 RFU | 273 ± 4 RFU | 303 ± 1 RFU | 4.3 ± 0.53 µM | 16000 nM | 3320 ± 880 nM | 3400 ± 2200 nM | 1700 ± 200 nM | 710 ± 300 nM | 321 ± 17 RFU | 241 ± 10 RFU | 216 ± 8 RFU | 800 ± 84 nM | –

From PMC10177380 (Cancers, 2023)
